Laboratory results: EPA's CvTdb concentration-time database (doi:10.1093/toxsci/kfy020)

Legend:
rat [1] = assay: concentration in plasma after dosing; details: male
rat [2] = assay: concentration in plasma after dosing; details: dosed: Chloridazon, 0.80 mg/kg, iv, male, Sprague-Dawley
rat [3] = assay: concentration in plasma after dosing; details: dosed: Chloridazon, 0.80 mg/kg, iv, male, Sprague-Dawley; remark: listed apart in the source
rat [4] = assay: concentration in plasma after dosing; details: dosed: Chloridazon, 4.17 mg/kg, oral, male, Sprague-Dawley
rat [5] = assay: concentration in plasma after dosing; details: dosed: Chloridazon, 4.17 mg/kg, oral, male, Sprague-Dawley; remark: listed apart in the source
rat [6] = assay: concentration in plasma after dosing; details: dosed: Diazinon-o-analog, 1.02 mg/kg, iv, male, Sprague-Dawley
rat [7] = assay: concentration in plasma after dosing; details: dosed: Diazinon-o-analog, 5.02 mg/kg, oral, male, Sprague-Dawley
rat [8] = assay: concentration in plasma after dosing; details: dosed: Diazinon-o-analog, 1.02 mg/kg, iv, male, Sprague-Dawley; remark: listed apart in the source
rat [9] = assay: concentration in plasma after dosing; details: dosed: Diazinon-o-analog, 5.02 mg/kg, oral, male, Sprague-Dawley; remark: listed apart in the source
rat [10] = assay: concentration in plasma after dosing; details: dosed: Flufenacet, 5.2 mg/kg, oral, male, Sprague-Dawley
rat [11] = assay: concentration in plasma after dosing; details: dosed: Flufenacet, 1.0 mg/kg, iv, male, Sprague-Dawley
rat [12] = assay: concentration in plasma after dosing; details: dosed: Flufenacet, 1.0 mg/kg, iv, male, Sprague-Dawley; remark: listed apart in the source
rat [13] = assay: concentration in plasma after dosing; details: dosed: Flufenacet, 5.2 mg/kg, oral, male, Sprague-Dawley; remark: listed apart in the source
rat [14] = assay: concentration in brain after dosing; details: dosed: Imipramine, 10.0000000000 mg/kg, iv, male, Wistar

COc1ccccc1Oc1c(NS(=O)(=O)c2ccc(C(C)(C)C)cc2)nc(-c2ncccn2)nc1OCCO [Bosentan]
concentration in plasma [ng/mL], rat [1], dosed: Bosentan, Wistar
Details	0.5 h	1 h	2 h	2 min	3 h	4 h	6 h	8 h	10 min	20 min
1.0000000000 mg/kg, iv	168	128	78.9	1950	61.3	38.3	18.3	10.5	323	212
10.0000000000 mg/kg, oral	–	622	608	–	–	360	157	60	–	–

COC(=O)Nc1nc2ccccc2[nH]1 [Carbendazim]
rat [1], dosed: Carbendazim, 1000.0000000000 mg/kg, oral, Sprague-Dawley
Details	concentration in plasma [ng/mL]
0.25 h	10000
0.5 h	11600
1 h	14700
2 h	20200
4 h	14100
8 h	4590
20 h	49.4

Nc1cnn(-c2ccccc2)c(=O)c1Cl [Chloridazon]
concentration in plasma [ng/mL]
Details	rat [2]	rat [3]	rat [4]	rat [5]
0.167 h	228	477	–	–
0.25 h	–	–	476	402
0.5 h	352	349	636	466
1 h	102	106	858	863
2 h	23.6	11.4	586	337
4 h	1.66	1.03	158	64.9
5 min	371	404	–	–
8 h	0.333	1.72	3.03	48.8
24 h	0.0228	0.115	0.913	0.604
48 h	0.0394	–	0.0563	0.0265
72 h	–	0.116	0.00435	0.0146

rat [1], dosed: Chloridazon, Sprague-Dawley
Details	concentration in plasma [ng/mL]
0.167 h, 0.80 mg/kg, iv	54.2
0.25 h, 4.17 mg/kg, oral	382
0.5 h, 0.80 mg/kg, iv	144
0.5 h, 4.17 mg/kg, oral	616
1 h, 0.80 mg/kg, iv	88
1 h, 4.17 mg/kg, oral	863
2 h, 0.80 mg/kg, iv	106
2 h, 4.17 mg/kg, oral	371
4 h, 0.80 mg/kg, iv	88.3
4 h, 4.17 mg/kg, oral	202
5 min, 0.80 mg/kg, iv	84.5
8 h, 0.80 mg/kg, iv	0.556
8 h, 4.17 mg/kg, oral	93.2
24 h, 0.80 mg/kg, iv	0.0877
24 h, 4.17 mg/kg, oral	0.329
48 h, 0.80 mg/kg, iv	0.0282
48 h, 4.17 mg/kg, oral	0.0714
72 h, 0.80 mg/kg, iv	0.072

CCOP(=S)(OCC)Oc1nc(Cl)c(Cl)cc1Cl [Chlorpyrifos]
concentration in plasma [ng/mL], rat [1], dosed: Chlorpyrifos, oral, F344
Details	1 h	3 h	5 min	6 h	12 h	20 min
5.0000000000 mg/kg	1.39	30	–	13.1	1.81	–
10.0000000000 mg/kg	5.05	109	–	18.7	1.76	–
50.0000000000 mg/kg	51	326	0.559	79.3	15.5	1.42
100.0000000000 mg/kg	246	759	0.665	202	278	7.47

CCOP(=O)(OCC)Oc1cc(C)nc(C(C)C)n1 [Diazinon-o-analog]
rat [1], dosed: Diazinon-o-analog, Sprague-Dawley
Details	concentration in plasma [ng/mL]
0.167 h, 1.02 mg/kg, iv	596
0.25 h, 5.02 mg/kg, oral	916
0.5 h, 1.02 mg/kg, iv	597
0.5 h, 5.02 mg/kg, oral	846
1 h, 1.02 mg/kg, iv	356
1 h, 5.02 mg/kg, oral	1180
2 h, 1.02 mg/kg, iv	271
2 h, 5.02 mg/kg, oral	1140
4 h, 1.02 mg/kg, iv	174
4 h, 5.02 mg/kg, oral	715
5 min, 1.02 mg/kg, iv	564
8 h, 1.02 mg/kg, iv	57.9
8 h, 5.02 mg/kg, oral	298
24 h, 1.02 mg/kg, iv	1.14
24 h, 5.02 mg/kg, oral	2.63
48 h, 5.02 mg/kg, oral	1.84
72 h, 1.02 mg/kg, iv	0.481
72 h, 5.02 mg/kg, oral	0.239

concentration in plasma [ng/mL]
Details	rat [6]	rat [7]	rat [8]	rat [9]
0.167 h	337	–	374	–
0.25 h	–	1220	–	1780
0.5 h	349	1070	1340	330
1 h	440	1060	413	1040
2 h	294	948	286	786
4 h	155	784	188	745
5 min	214	–	247	–
8 h	59.5	292	60.9	316
24 h	0.498	4.31	0.552	5.04
48 h	–	0.116	0.0484	0.193
72 h	0.247	1.21	–	3.73

COc1ccc([C@@H]2Sc3ccccc3N(CCN(C)C)C(=O)[C@@H]2OC(C)=O)cc1 [Diltiazem]
concentration in plasma [ng/mL], rat [1], dosed: Diltiazem, 20.0000000000 mg/kg, Sprague-Dawley
Details	0.16 h	0.25 h	1 h	1.5 h	2 h	3 h	4 h	6 h	8 h	10 h
iv	7870	5050	2530	1510	956	636	202	69.3	78	22.5
oral	1220	488	248	189	271	160	52.8	19.4	–	–

CC(C)N(C(=O)COc1nnc(C(F)(F)F)s1)c1ccc(F)cc1 [Flufenacet]
rat [1], dosed: Flufenacet, Sprague-Dawley
Details	concentration in plasma [ng/mL]
0.167 h, 1.0 mg/kg, iv	20.4
0.25 h, 5.2 mg/kg, oral	0.81
0.5 h, 1.0 mg/kg, iv	4.05
0.5 h, 5.2 mg/kg, oral	0.401
1 h, 1.0 mg/kg, iv	3.72
1 h, 5.2 mg/kg, oral	0.451
2 h, 1.0 mg/kg, iv	1.81
2 h, 5.2 mg/kg, oral	0.188
4 h, 1.0 mg/kg, iv	2.03
4 h, 5.2 mg/kg, oral	0.146
5 min, 1.0 mg/kg, iv	48.6
8 h, 1.0 mg/kg, iv	2.1
8 h, 5.2 mg/kg, oral	0.0824
24 h, 1.0 mg/kg, iv	0.0352
24 h, 5.2 mg/kg, oral	0.0158
48 h, 1.0 mg/kg, iv	0.0229
48 h, 5.2 mg/kg, oral	0.0322
72 h, 1.0 mg/kg, iv	0.0508
72 h, 5.2 mg/kg, oral	0.0214

concentration in plasma [ng/mL]
Details	rat [10]	rat [11]	rat [12]	rat [13]
0.167 h	–	80.7	52.4	–
0.25 h	2.17	–	–	0.708
0.5 h	1.32	13.7	8.65	0.41
1 h	0.462	1.82	4.31	0.274
2 h	0.22	0.896	3.42	0.256
4 h	0.135	0.328	2.88	0.199
5 min	–	195	128	–
8 h	0.116	0.0709	0.0986	0.15
24 h	0.0179	0.0595	0.044	0.0249
48 h	0.0128	0.0264	0.026	0.017
72 h	0.0208	0.0353	0.0121	0.0224

CNC(=O)Oc1cccc(N=CN(C)C)c1.Cl [Formetanate hydrochloride]
concentration in plasma [ng/mL], rat [1], dosed: Formetanate hydrochloride, Sprague-Dawley
Details	0.25 h	1 h	2 h	24 h	48 h	72 h
1.0000000000 mg/kg, iv	–	–	–	7.9	2.2	–
5.0000000000 mg/kg, oral	262	53.2	9.57	1.64	12.4	5.13

CN(C)CCCN1c2ccccc2CCc2ccccc21 [Imipramine]
concentration in plasma [ng/mL], rat [1], dosed: Imipramine
Details	0.1287 h	0.25 h	0.5 h	1 h	2 h	4 h	8 h	16 h	24 h	208 s
10.0000000000 mg/kg, iv, Wistar	1620	–	853	719	238	46.3	–	–	–	2340
50.0000000000 mg/kg, oral, Sprague-Dawley	–	99.1	75.7	120	73.9	58.7	38.6	33.5	28.3	–

rat [14]
Details	concentration in brain [µg/g]
1 h	8.5
2 h	3.6
4 h	1.61
5 min	14.7
10 min	15.1
